Paper PMC5789271, “Absorption and Metabolism of Phenolics from Digests of Polyphenol-Rich Potato Extracts Using the Caco-2/HepG2 Co-Culture System” (Foods, 2018)
Values joined by “and” are separate entries in the source; they are usually repeats but may differ in a detail not shown here. Identical values can stand only once. “Also recorded” adds a separate entry of the source.

Legend:
[1] = test system: human intestinal microbial ecosystem (colonic microbiota); assay: Simulated digestion of PRPE in the dynamic multi-reactor GI model, LC-MS phenolic profile of pooled colonic digesta; format: in vitro ADME; conditions: pooled digesta of three colonic vessels, 24 h; further: key: (+) present; (T) trace amount
From the text: PRPE was subjected to in vitro digestion by the GI model as described previously in detail. Briefly, the model was composed of five double-jacketed vessels representing the stomach, the small intestine, the ascending colon, the transverse colon, and the descending colon. The model was fully computer controlled. The pH was automatically controlled by addition of 0.2 M HCl and 0.5 M NaOH solution upon a change in pH in the vessels to simulate the in vivo conditions in the different segments of the human gastrointestinal tract. The temperature was kept at 37 °C and anaerobic conditions were maintained in the fermentation vessels by flushing nitrogen gas for 20 min into the airspace every day. The experiment was started after a 2-week stabilization period in which fecal slurry, obtained from five healthy volunteers with no history of GI disease or antibiotic use in the previous six months, were inoculated into the last three vessels. After the 2-week stabilization period, 130 g PRPE was dissolved in the GI food mixture, which was composed of the following ingredients: arabinolactan, pectin, xylan, starch, glucose, yeast extracts, peptone, mucin, and cysteine powders—a composition previously developed by Molly et al. (1993). The GI food mixture was stored at 4 °C during the study. Samples were collected from all three colonic vessels before and 24 h after addition of PRPE to the GI digestion model. Each digestion was carried out in triplicate. Samples were centrifuged at 1000× g and stored at −80 °C for later analysis by liquid chromatography–mass spectrometry (LC-MS) and for the cell culture experiments.
The samples that were collected from the last three colonic vessels of the gut model after 24 h digestion were pooled after each experiment and prepared according to the method described previously. The samples were centrifuged at 36,000× g, 4 °C for 2 h. The supernatant was collected and the pH was neutralized to pH 7 before being filter sterilized with a 25 mm syringe filter (0.2 µm, MCE, Fisher Scientific, Ottawa, ON, Canada) and stored at −80 °C until used for the Caco-2/HepG2 cell experiments. Samples collected before the addition of PRPE were considered as the controls.
This condition was maintained for 3 min.

[2] = test system: Caco-2 cells; assay: Caco-2 cell transport bioassay (Caco-2/HepG2 co-culture, 2 h); format: in vitro ADME, human; set-up: Percentage of Control Value at 0 h, A (2 h) / Percentage of Control Value at 0 h, B (2 h): concentration or dose not given beside the values; conditions: for Percentage of Digesta Value, A (2 h) / Percentage of Digesta Value, B (2 h): PRPE digesta 10% (v/v); for Percentage of Digesta Value, A (2 h) / Percentage of Control Value at 0 h, A (2 h): apical chamber after 2 h; for Percentage of Digesta Value, B (2 h) / Percentage of Control Value at 0 h, B (2 h): basolateral chamber after 2 h; for Percentage of Control Value at 0 h, A (2 h) / Percentage of Control Value at 0 h, B (2 h): control digesta
[3] = test system: HepG2 cells; assay: HepG2 cell metabolism bioassay (basolateral chamber, further 3 h); conditions: for Fold increase of basolateral concentration after HepG2 incubation: 3 h with HepG2 cells, relative to initial basolateral value
Description: Cells were incubated at 37 °C with 5% CO2 and 90% humidity and were monitored daily.
During this time, the medium was changed every other day. Before starting the treatments, the integrity of the monolayer was checked by measuring the transepithelial electrical resistance (TEER). […] Caco-2 monolayers having reached a TEER of 250 ohm/cm^2 or greater were used for the transport experiment [29]. […] Medium (500 µL) containing digesta of PRPE was added to the apical side of the wells and incubated for up to 2 h. […] Samples were taken from the receiver well after 2 and 5 h. […] All samples were centrifuged at 2000× g for 15 min and the supernatants were stored at −20 °C for further analysis by LC-MS.
After thawing, samples were vortexed and filtered using 25 mm syringe filters (0.45 µm, MCE, Fisher Scientific, Ottawa, ON, Canada) and transferred to HPLC vials for LC-MS analysis. […] Phenolic compounds and metabolites were eluted using a gradient of solvent A (10 mM formic acid, pH 3.5) and B (5 mM ammonium formate solution in 100% methanol), starting with 5% B, increasing to 30% B in 5 min, 70% B in 7 min, and 100% B at 9 min. This condition was maintained for 3 min. A solvent flow rate of 1.0 mL/min was used and 20 µL of sample was injected into the LC system. […] The analyses were performed in both positive and negative modes and the data was acquired over a mass range of m/z 100–1000. […] The data were acquired and processed using Agilent Mass Hunter software version B.04.00. […] The relative abundance of the compounds was calculated relative to the quantification of benzoic acid as the reference peak, as benzoic acid was present in all the cellular compartments at the same concentration at all time points.

[4] = test system: Caco-2 and HT29-MTX cells; set-up: method as in PMID 18154874; conditions: 1-h co-culture of Caco-2 and HT29-MTX cells; cited from earlier work
[5] = test system: Caco-2 cell monolayer; set-up: method as in PMID 12784628; conditions: cited from earlier work
[6] = PRPE digesta, basolateral chamber after 3 h with HepG2 cells alone (t = 5 h), relative to basolateral value at 2 h
[7] = control digesta, basolateral chamber after 3 h with HepG2 cells (t = 5 h)
[8] = listed as 3-hydroxyphenylacetic acid

| Compound | Presence after human simulated intestinal digestion of PRPE [1] | Percentage of Digesta Value, A (2 h) [2] | Percentage of Digesta Value, B (2 h) [2] | Percentage of Control Value at 0 h, A (2 h) [2] | Percentage of Control Value at 0 h, B (2 h) [2] | Fold increase of basolateral concentration after HepG2 incubation ([3]; PRPE digesta) | Percentage of Basolateral Value, B (5 h) [3, 6] | Percentage of Basolateral Value, B (5 h) [3, 7] | other results |
| --- | --- | --- | --- | --- | --- | --- | --- | --- | --- |
| C[C@@H]1O[C@@H](OC[C@H]2O[C@@H](Oc3c(-c4ccc(O)c(O)c4)oc4cc(O)cc(O)c4c3=O)[C@H](O)[C@@H](O)[C@@H]2O)[C@H](O)[C@H](O)[C@H]1O [Rutin, Quercetin-3-O-rutinoside] | + |  |  |  |  |  |  |  |  |
| O=C(O)CCc1cccc(O)c1 [3-Hydroxyphenylpropionic acid, 3-(3-Hydroxyphenyl)propionic acid] | + | 69% | 4% | 90% | - | 2.3 fold | 233% | - | Percentage of Digesta Value, B (2 h) ([2]; listed as 3-hydroxyphenylpropionic acid): 3–5%; Percentage of Basolateral Value, B (5 h) ([3]; PRPE digesta, basolateral chamber after 3 h with HepG2 cells alone (t = 5 h), relative to basolateral value at 2 h, listed as 3-hydroxyphenylpropionic acid): 160–370% |
| O=C(O)Cc1cccc(O)c1 [3-Hydroxyphenylacetic acid] | + | 70% | - | 100% | - |  | - | - | Percentage of Digesta Value, A (2 h) [2, 8]: 65–70%; Percentage of Digesta Value, B (2 h) [2, 8]: not detected; also recorded: none of these three compounds were measurable |
| COc1cc(CCC(=O)O)ccc1O [Dihydroferulic acid, 3-(4-Hydroxy-3-methoxyphenyl)propionic acid] | + | 78% | 10% |  |  |  | 78% |  | Percentage of Digesta Value, B (2 h) ([2]; listed as dihydroferulic acid): 10–15% and 15% |
| O=C(O)CCc1ccc(O)c(O)c1 [Dihydrocaffeic acid, 3-(3′,4′-Dihydroxyphenyl)propionic acid] | + | 67% | 15% | 26% | 26% | three-fold increase | 338% | 123% | Permeability across Caco-2 cells [4]: 0.5%; Percentage of Digesta Value, B (2 h) ([2]; listed as dihydrocaffeic acid): 10–15% and 10%; Percentage of Basolateral Value, B (5 h) ([3]; PRPE digesta, basolateral chamber after 3 h with HepG2 cells alone (t = 5 h), relative to basolateral value at 2 h, listed as dihydrocaffeic acid): 160–370% |
| COc1cc(/C=C/C(=O)O)ccc1O [Ferulic acid, (E)-3-(4-Hydroxy-3-methoxy-phenyl)prop-2-enoic acid] | + | 90% | 11% |  |  | 1.6 fold | 166% |  | Percentage of Digesta Value, B (2 h) ([2]; listed as ferulic acid): 10–15%; Percentage transported to the basolateral side of the Caco-2 cell monolayer [5]: 3.42%; Percentage of Basolateral Value, B (5 h) ([3]; PRPE digesta, basolateral chamber after 3 h with HepG2 cells alone (t = 5 h), relative to basolateral value at 2 h, listed as ferulic acid): 160–370% |
| O=C(O)/C=C/c1ccc(O)cc1 [Coumaric acid] | + | 68% | 3% |  |  | More than a two-fold increase | 212% |  | Percentage of Digesta Value, B (2 h) ([2]; listed as coumaric acid): 3–5% |
| COc1cc(C(=O)O)ccc1O [Vanillic acid, 4-Hydroxy-3-methoxybenzoic acid] | + |  |  |  |  |  |  |  |  |
| O=C(O)C=Cc1ccccc1 [Cinnamic acid, 3-Phenylprop-2-enoic acid] | + |  |  |  |  |  |  |  |  |
| O=C(O)CCc1ccccc1 [Phenylpropanoic acid] | + | 65% | - | 100% | - |  | - | - | Percentage of Digesta Value, A (2 h) ([2]; listed as phenylpropanoic acid): 65–70%; Percentage of Digesta Value, B (2 h) ([2]; listed as phenylpropanoic acid): not detected; also recorded: none of these three compounds were measurable |
| O=C(O)c1ccccc1 [Benzoic acid] | + | + | + | + | + |  | + | + |  |
| O=C(O)c1cccc(O)c1 [3-Hydroxybenzoic acid] | + | 50% | 5% |  |  |  | 100% |  | Percentage of Digesta Value, B (2 h) ([2]; listed as 3-hydroxybenzoic acid): 3–5%; Percentage of Basolateral Value, B (5 h) ([3]; PRPE digesta, basolateral chamber after 3 h with HepG2 cells alone (t = 5 h), relative to basolateral value at 2 h, listed as 3-hydroxybenzoic acid): unchanged |
| O=C(O)c1ccc(O)c(O)c1 [Protocatechuic acid, 3,4-Dihydroxybenzoic acid] | + |  |  |  |  |  |  |  |  |
